What follows are molecules tested against Bifunctional purine biosynthesis protein ATIC (Homo sapiens, UniProt P31939) (assay: AICAR Tfase Inhibition Assay). Conditions: pH 7.4; 26 °C.
Bifunctional purine biosynthesis protein ATIC, sequence (P31939 whole entry): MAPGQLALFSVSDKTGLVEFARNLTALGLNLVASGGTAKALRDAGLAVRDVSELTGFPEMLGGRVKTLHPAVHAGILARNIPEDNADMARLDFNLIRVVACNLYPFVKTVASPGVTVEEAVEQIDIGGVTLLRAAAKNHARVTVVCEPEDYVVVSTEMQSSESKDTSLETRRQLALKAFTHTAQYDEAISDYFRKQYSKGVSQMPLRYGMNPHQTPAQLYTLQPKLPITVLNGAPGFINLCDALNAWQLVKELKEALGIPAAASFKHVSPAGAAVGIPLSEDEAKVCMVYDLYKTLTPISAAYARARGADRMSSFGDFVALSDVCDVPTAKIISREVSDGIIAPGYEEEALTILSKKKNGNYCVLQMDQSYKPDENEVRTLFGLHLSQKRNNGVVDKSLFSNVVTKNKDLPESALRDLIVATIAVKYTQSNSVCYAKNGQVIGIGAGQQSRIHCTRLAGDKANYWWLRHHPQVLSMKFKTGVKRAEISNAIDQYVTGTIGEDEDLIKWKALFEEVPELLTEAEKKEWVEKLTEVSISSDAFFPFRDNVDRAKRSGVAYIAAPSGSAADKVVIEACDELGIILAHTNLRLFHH
Source text: Recombinant human AICAR Tfase was used in the inhibition assay. The reaction was monitored at 298 nm by measuring the increase in absorbance corresponding to the formation of THF. The THF was generated in the transfer reaction of the formyl group from cofactor to AICAR to produce 5-formyl-AICAR. Double reciprocal plots were used to determine the Ki values.
In the case of Nc1nc(N)c(CCC[C@@H](O)c2ccc(C(=O)NC(CCC(=O)O)C(=O)O)cc2)c(=O)[nH]1 (stereo partly drawn) [2-({4-[(1R)-4-(2,4-diamino-6-oxo-1,6-dihydropyrimidin-5-yl)-1-hydroxybutyl]phenyl}formamido)pentanedioic acid], the Ki is reported as > 100 µM.
CO[C@H](CCCc1c(N)nc(N)[nH]c1=O)c1ccc(C(=O)NC(CCC(=O)O)C(=O)O)cc1 (stereo partly drawn) [2-({4-[(1R)-4-(2,4-diamino-6-oxo-1,6-dihydropyrimidin-5-yl)-1-methoxybutyl]phenyl}formamido)pentanedioic acid] was tested, and the Ki was > 100 µM.
For Nc1nc(N)c(CCC[C@H](O)c2ccc(C(=O)NC(CCC(=O)O)C(=O)O)cc2)c(=O)[nH]1 (stereo partly drawn) [2-({4-[(1S)-4-(2,4-diamino-6-oxo-1,6-dihydropyrimidin-5-yl)-1-hydroxybutyl]phenyl}formamido)pentanedioic acid], the Ki was > 100 µM.
CO[C@@H](CCCc1c(N)nc(N)[nH]c1=O)c1ccc(C(=O)NC(CCC(=O)O)C(=O)O)cc1 (stereo partly drawn) [2-({4-[(1S)-4-(2,4-diamino-6-oxo-1,6-dihydropyrimidin-5-yl)-1-methoxybutyl]phenyl}formamido)pentanedioic acid] was tested, and the Ki was > 100 µM.
With CS[C@H](CCCc1c(N)nc(N)[nH]c1=O)c1ccc(C(=O)NC(CCC(=O)O)C(=O)O)cc1 (some centres not stated) [10R (8)] the Ki was > 100 µM.
With CS[C@@H](CCCc1c(N)nc(N)[nH]c1=O)c1ccc(C(=O)NC(CCC(=O)O)C(=O)O)cc1 (some centres not stated) [10S (7)] the Ki was > 100 µM.

What follows are molecules tested against T1, Trifunctional purine biosynthetic protein adenosine-3 (Homo sapiens, UniProt P22102) (assay: GAR Tfase Activity Assay). Conditions: pH 7.5; 26 °C.
T1 sequence (P22102 whole entry): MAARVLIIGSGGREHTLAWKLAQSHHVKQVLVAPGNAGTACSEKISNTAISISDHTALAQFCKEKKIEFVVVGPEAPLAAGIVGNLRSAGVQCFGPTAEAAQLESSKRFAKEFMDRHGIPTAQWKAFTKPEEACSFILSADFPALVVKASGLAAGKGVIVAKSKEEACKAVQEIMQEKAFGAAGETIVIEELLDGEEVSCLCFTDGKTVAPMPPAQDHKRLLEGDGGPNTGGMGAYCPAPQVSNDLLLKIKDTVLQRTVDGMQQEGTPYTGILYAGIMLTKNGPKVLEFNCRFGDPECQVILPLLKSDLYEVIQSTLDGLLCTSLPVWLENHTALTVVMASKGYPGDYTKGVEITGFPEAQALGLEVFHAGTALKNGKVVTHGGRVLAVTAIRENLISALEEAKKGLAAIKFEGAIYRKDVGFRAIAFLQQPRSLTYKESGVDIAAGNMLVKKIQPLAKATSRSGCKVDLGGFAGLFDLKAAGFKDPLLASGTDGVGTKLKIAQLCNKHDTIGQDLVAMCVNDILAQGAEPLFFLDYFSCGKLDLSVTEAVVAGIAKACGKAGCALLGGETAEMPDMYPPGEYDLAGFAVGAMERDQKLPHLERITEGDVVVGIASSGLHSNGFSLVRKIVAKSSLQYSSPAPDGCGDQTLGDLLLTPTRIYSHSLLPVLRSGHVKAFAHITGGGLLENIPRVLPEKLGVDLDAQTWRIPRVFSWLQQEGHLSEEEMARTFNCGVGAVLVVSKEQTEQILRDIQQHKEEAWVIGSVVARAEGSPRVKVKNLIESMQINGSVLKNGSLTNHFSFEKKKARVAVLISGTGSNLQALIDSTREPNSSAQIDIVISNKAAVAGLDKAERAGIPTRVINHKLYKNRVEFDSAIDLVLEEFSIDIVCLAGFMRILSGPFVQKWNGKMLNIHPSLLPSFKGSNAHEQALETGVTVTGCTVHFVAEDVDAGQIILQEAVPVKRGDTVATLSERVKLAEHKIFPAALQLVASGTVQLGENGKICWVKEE
With Nc1nc(N)c(CCC[C@@H](O)c2ccc(C(=O)NC(CCC(=O)O)C(=O)O)cc2)c(=O)[nH]1 (stereo partly drawn) [2-({4-[(1R)-4-(2,4-diamino-6-oxo-1,6-dihydropyrimidin-5-yl)-1-hydroxybutyl]phenyl}formamido)pentanedioic acid] the Ki was 1.1 µM.

— BindingDB's records for doi:10.1021/jm800555h (The Scripps Research Institute, 2008)
